Five compounds from ChEMBL document CHEMBL2021859, “Practical access to four stereoisomers of naftidrofuryl and their binding affinity towards 5-hydroxytryptamine 2A receptor” (Bioorg Med Chem Lett, 2012) can be followed below.

The target in this experiment is 5-hydroxytryptamine receptor 2A (Homo sapiens, UniProt P28223). Nature of the experiment: Displacement of [3H]ketanserin from 5HT2A receptor expressed in HEK293 cells by liquid scintillation spectrophotometry. The class given is cell-based.
5-hydroxytryptamine receptor 2A, sequence (P28223 whole entry): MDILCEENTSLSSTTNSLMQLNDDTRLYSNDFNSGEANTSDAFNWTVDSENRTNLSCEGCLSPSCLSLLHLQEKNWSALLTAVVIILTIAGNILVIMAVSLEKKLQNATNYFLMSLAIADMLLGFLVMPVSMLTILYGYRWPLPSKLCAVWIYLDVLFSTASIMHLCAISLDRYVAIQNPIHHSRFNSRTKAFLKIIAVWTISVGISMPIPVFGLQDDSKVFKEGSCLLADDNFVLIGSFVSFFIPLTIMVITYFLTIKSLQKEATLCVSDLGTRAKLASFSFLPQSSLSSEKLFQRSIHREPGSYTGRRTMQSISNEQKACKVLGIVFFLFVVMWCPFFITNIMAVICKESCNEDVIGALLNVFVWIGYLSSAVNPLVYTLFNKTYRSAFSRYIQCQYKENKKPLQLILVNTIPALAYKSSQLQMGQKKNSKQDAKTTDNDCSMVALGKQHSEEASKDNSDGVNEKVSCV

SMILES strings stand for the structures. Structures can show the parent of a compound that is named as a salt.

With `CCN(CC)CCOC(=O)[C@@H](Cc1cccc2ccccc12)C[C@@H]1CCCO1`, the Ki is, setting by setting: (read-out: Ki) 153 nM; (read-out: pKi (converted)) 282 nM.
`CCN(CC)CCOC(=O)[C@H](Cc1cccc2ccccc12)C[C@@H]1CCCO1`: the Ki was 972 nM (read-out: Ki) and 1700 nM (read-out: pKi (converted)).
Regarding `CCN(CC)CCOC(=O)[C@H](Cc1cccc2ccccc12)C[C@H]1CCCO1`, the Ki reads like this: (read-out: Ki) 2070 nM; (read-out: pKi (converted)) 2290 nM.
On the same counts, the results for `CCN(CC)CCOC(=O)[C@@H](Cc1cccc2ccccc12)C[C@H]1CCCO1` are 150 nM and 145 nM.
For `CCN(CC)CCOC(=O)C(Cc1cccc2ccccc12)CC1CCCO1` (stereo not given) [NAFRONYL OXALATE], in that order: 256 nM and 331 nM.
